The source of these data is patent US8716355B2, “Hydroxylated tolans and related compounds in the treatment of a cancer” (Kent State University, priority 2007, dated 2014).

The assay concerns HSV-1. An excerpt: FIG. 2. […] A 10% w/v solution of KST-301 in DMSO was applied topically to the epidermal infection site 3×/day for 5 days. Controls animals received the same volume of the DMSO vehicle at the same intervals. Lesions were scored as 0=no visible lesions, +1=papules around the infection site, +2=papules are ulcerated around the infection site with eschar formation, +3=ulcerated zosteriform spread along peripheral nerves to the flank of the animal, +4=ulcerated lesions open on the flank, and +5=death of the animal.
The lesions were scored as in the description for FIG. 2.

As for `Oc1ccc(/C=C/c2cc(O)cc(O)c2)cc1` [Resveratrol, 3,5,4′-trihydroxy-trans-stilbene, reference compound], for the setting “10% w/v solution in DMSO, topical 3×/day for 5 days, hairless mice”, the “Severity of HSV-1 lesions” value is reported as “significantly reduced the severity of the lesions”. In addition, the “Treated animals in which lesion formation was prevented” value (topical solution in DMSO) is 57-67%. Also, the “Treated animals showing evidence of HSV infection” value (topical solution in DMSO, controls 83-100%) turned out to be 43%. Further, the “Maximum (average) lesion score” value (topical solution in DMSO, scale 0 to +5, controls 3.8-4 by days 8 and 9) is 0.8-1.2.
